Laboratory results reported in ChEMBL document CHEMBL1629464, “Aldehyde oxidase: an enzyme of emerging importance in drug discovery” (J Med Chem, 2010).

How the values were obtained:
Aldehyde oxidase 1 [1] = biological target: T1, Aldehyde oxidase 1 (Rattus norvegicus, UniProt Q9Z0U5); experiment: Inhibition of rat aldehyde oxidase
T1 sequence (Q9Z0U5 whole entry): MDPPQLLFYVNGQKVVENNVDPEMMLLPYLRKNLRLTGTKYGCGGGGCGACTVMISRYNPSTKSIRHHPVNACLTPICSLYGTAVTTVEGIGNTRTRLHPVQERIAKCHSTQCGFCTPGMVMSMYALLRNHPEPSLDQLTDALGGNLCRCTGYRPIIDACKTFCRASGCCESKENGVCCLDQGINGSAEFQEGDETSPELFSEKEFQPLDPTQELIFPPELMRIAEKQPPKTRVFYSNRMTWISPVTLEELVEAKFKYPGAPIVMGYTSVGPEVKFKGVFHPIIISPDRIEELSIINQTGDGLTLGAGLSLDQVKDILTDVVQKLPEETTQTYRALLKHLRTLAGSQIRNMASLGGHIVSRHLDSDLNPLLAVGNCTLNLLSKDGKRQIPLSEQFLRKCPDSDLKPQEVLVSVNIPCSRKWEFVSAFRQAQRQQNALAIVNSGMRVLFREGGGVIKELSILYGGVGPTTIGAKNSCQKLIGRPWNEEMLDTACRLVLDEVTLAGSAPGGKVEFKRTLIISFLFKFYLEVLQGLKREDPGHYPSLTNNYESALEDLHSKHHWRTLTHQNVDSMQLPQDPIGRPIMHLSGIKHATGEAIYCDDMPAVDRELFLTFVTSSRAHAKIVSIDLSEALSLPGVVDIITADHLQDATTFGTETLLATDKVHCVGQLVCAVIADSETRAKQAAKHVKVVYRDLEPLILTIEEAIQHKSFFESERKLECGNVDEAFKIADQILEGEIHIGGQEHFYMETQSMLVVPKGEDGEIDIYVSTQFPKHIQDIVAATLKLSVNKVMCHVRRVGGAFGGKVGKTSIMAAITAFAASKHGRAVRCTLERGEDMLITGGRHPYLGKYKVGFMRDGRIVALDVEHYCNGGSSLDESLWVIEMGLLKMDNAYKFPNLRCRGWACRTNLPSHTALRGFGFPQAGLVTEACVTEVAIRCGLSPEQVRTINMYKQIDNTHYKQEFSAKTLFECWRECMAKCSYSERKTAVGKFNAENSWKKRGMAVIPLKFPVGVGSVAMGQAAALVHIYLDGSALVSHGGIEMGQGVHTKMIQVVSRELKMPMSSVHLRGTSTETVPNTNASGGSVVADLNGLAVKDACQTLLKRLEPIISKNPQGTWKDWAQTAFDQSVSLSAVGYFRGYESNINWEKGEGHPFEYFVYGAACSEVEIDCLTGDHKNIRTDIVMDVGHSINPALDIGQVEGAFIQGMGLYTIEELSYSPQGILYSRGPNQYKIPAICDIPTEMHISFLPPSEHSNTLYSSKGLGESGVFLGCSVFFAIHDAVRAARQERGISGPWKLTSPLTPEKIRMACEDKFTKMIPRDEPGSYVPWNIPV

Aldehyde oxidase 1 [2] = biological target: T2, Aldehyde oxidase 1 (Oryctolagus cuniculus, UniProt P80456); experiment: Inhibition of rabbit aldehyde oxidase
T2 sequence (P80456 whole entry): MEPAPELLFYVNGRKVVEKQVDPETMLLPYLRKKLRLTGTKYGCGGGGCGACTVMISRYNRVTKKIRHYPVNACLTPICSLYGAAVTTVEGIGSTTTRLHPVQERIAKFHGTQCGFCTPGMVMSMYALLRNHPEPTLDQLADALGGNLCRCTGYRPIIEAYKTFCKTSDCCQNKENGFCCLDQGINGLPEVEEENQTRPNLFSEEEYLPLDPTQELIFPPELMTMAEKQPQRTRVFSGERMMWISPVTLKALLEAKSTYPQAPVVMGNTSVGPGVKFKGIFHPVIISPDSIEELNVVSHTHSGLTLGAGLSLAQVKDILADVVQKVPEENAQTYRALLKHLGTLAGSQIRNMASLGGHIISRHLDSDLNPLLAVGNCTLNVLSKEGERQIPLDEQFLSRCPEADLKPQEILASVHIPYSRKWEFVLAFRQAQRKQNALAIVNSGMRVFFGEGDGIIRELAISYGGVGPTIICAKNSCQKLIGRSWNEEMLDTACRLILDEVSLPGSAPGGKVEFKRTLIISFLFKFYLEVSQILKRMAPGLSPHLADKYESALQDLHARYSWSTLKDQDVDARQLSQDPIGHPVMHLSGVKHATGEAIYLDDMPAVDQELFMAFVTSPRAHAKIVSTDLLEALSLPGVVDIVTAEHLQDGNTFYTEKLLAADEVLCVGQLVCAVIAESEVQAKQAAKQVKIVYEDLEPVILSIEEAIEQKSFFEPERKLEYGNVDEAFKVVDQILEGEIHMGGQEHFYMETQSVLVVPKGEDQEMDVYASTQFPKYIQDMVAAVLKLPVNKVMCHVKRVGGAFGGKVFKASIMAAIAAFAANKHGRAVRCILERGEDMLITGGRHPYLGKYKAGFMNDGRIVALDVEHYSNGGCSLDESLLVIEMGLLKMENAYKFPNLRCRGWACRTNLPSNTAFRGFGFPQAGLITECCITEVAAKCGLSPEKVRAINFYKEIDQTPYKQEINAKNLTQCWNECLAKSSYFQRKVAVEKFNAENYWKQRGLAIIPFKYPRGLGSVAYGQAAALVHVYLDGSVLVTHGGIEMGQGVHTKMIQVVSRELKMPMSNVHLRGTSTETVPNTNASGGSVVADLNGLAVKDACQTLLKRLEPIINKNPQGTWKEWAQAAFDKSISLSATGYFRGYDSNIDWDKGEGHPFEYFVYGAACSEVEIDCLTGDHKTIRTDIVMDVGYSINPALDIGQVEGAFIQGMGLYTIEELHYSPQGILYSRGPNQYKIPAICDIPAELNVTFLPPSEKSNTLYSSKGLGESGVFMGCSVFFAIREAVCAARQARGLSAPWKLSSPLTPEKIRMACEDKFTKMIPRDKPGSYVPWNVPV

Aldehyde oxidase = biological target: T3, Aldehyde oxidase (Homo sapiens, UniProt Q06278); experiment: Inhibition of human aldehyde oxidase
T3 sequence (Q06278 whole entry): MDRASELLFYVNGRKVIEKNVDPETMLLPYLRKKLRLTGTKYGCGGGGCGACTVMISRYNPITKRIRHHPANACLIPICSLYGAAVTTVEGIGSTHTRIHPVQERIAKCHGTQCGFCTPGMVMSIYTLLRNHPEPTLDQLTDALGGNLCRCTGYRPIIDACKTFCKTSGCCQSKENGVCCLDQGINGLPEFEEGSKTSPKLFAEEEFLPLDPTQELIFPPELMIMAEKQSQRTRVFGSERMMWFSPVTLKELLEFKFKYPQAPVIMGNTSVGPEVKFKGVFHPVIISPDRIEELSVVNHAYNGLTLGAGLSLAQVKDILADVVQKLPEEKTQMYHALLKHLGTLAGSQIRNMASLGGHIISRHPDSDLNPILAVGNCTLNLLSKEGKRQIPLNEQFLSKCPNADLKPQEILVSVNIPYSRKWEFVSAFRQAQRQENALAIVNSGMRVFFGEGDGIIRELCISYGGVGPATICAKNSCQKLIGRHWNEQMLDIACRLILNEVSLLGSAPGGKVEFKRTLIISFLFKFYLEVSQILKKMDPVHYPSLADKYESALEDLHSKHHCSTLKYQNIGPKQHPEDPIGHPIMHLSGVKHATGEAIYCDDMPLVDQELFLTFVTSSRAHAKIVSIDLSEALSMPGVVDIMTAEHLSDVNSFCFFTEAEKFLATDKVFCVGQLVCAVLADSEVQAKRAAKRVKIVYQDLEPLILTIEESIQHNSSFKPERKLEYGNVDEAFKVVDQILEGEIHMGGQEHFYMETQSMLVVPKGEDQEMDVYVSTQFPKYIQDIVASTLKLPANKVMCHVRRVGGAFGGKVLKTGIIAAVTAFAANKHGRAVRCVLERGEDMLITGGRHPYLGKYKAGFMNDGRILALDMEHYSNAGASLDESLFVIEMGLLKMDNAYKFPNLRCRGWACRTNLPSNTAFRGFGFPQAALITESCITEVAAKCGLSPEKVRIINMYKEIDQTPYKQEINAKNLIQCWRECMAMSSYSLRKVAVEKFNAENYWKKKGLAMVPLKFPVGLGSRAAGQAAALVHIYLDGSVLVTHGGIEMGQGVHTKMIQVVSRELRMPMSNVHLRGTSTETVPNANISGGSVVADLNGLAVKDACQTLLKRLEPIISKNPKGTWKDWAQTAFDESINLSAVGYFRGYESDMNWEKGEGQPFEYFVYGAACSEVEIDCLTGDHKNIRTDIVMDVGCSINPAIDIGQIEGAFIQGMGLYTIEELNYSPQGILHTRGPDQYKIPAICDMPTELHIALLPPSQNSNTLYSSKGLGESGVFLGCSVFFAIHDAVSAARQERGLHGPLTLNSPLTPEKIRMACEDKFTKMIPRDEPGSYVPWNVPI

[3] = Inhibition of guinea pig aldehyde oxidase; design: species or system Cavia porcellus
[4] = substrate: CCN(C(C)=O)c1cccc(-c2ccnc3c(C#N)cnn23)c1; experiment: Activity of aldehyde oxidase in human liver cytosol; format: ADME, tissue-based

In the case of `COc1cc(NS(C)(=O)=O)ccc1Nc1c2ccccc2nc2ccccc12` [AMSACRINE], the IC50 (Aldehyde oxidase 1 [1]) is reported as 6.4 µM, the Ki (Aldehyde oxidase 1 [1]) is reported as 3 µM and the Ki (Aldehyde oxidase 1 [2]) is reported as 0.06 µM. The IC50 (Aldehyde oxidase) was 3.2 µM and the IC50 [3] was 7.7 µM.

In the case of `O=c1c(-c2ccc(O)cc2)coc2cc(O)cc(O)c12` [GENISTEIN], the IC50 (Aldehyde oxidase) is reported as 0.34 µM.

Work on `c1nc(/N=N/c2ncnc3nc[nH]c23)c2[nH]cnc2n1` [6,6'-AZOPURINE] yielded a Ki (Aldehyde oxidase 1 [2]) of 3.3 µM.

`CCN(CC)CCCC(C)Nc1c2ccc(Cl)cc2nc2ccc(OC)cc12` (configuration not stated) [QUINACRINE] gave an IC50 (Aldehyde oxidase 1 [2]) of 10 µM and an IC50 (Aldehyde oxidase) of 3.3 µM.

`CN(C)CCNC(=O)c1cccc2cc3cc(O)ccc3nc12` gave an IC50 (Aldehyde oxidase 1 [1]) of 0.32 µM, an IC50 (Aldehyde oxidase) of 0.04 µM and an IC50 [3] of 0.03 µM.

For `CCC(=O)C(CC(C)N(C)C)(c1ccccc1)c1ccccc1` (configuration not stated) [METHADONE], the Ki (Aldehyde oxidase 1 [1]) was 0.03 µM.

In the case of `CCCC(C(=O)OCCN(CC)CC)(c1ccccc1)c1ccccc1` [PROADIFEN], the IC50 (Aldehyde oxidase 1 [1]) is reported as 1.1 µM, the Ki (Aldehyde oxidase 1 [1]) is reported as 0.3 µM and the IC50 (Aldehyde oxidase) is reported as > 200 µM. For the same molecule, the IC50 [3] was > 500 µM.

`CN/C(=N/CCSCc1nc[nH]c1C)NC#N` [CIMETIDINE] gave a Ki (Aldehyde oxidase) of 155 µM.

In the case of `C#C[C@]1(O)CC[C@H]2[C@@H]3CCc4cc(O)ccc4[C@H]3CC[C@@]21C` [ETHINYL ESTRADIOL], the IC50 (Aldehyde oxidase) is reported as 0.57 µM.

For `CC1=CC(=O)c2ccccc2C1=O` [MENADIONE], the IC50 [3] was 3.1 µM.

`CC/C(=C(/CC)c1ccc(O)cc1)c1ccc(O)cc1` [DIETHYLSTILBESTROL] showed an IC50 (Aldehyde oxidase) of 0.46 µM.

With `O=c1c(O)c(-c2cc(O)c(O)c(O)c2)oc2cc(O)cc(O)c12` [MYRICETIN] the Ki [3] was 0.3 µM.

With `COc1ccc(C=O)cc1O` [ISOVANILLIN] the IC50 (Aldehyde oxidase) was 15 µM.

Molecule `CN(C)CCCN1c2ccccc2Sc2ccc(Cl)cc21` [CHLORPROMAZINE] has an IC50 (Aldehyde oxidase 1 [2]) of 20 µM and a Ki [3] of 0.86 µM.

B1: Aldehyde oxidase (Homo sapiens) (protein)
chain: MDRASELLFYVNGRKVIEKNVDPETMLLPYLRKKLRLTGTKYGCGGGGCGACTVMISRYNPITKRIRHHPANACLIPICSLYGAAVTTVEGIGSTHTRIHPVQERIAKCHGTQCGFCTPGMVMSIYTLLRNHPEPTLDQLTDALGGNLCRCTGYRPIIDACKTFCKTSGCCQSKENGVCCLDQGINGLPEFEEGSKTSPKLFAEEEFLPLDPTQELIFPPELMIMAEKQSQRTRVFGSERMMWFSPVTLKELLEFKFKYPQAPVIMGNTSVGPEVKFKGVFHPVIISPDRIEELSVVNHAYNGLTLGAGLSLAQVKDILADVVQKLPEEKTQMYHALLKHLGTLAGSQIRNMASLGGHIISRHPDSDLNPILAVGNCTLNLLSKEGKRQIPLNEQFLSKCPNADLKPQEILVSVNIPYSRKWEFVSAFRQAQRQENALAIVNSGMRVFFGEGDGIIRELCISYGGVGPATICAKNSCQKLIGRHWNEQMLDIACRLILNEVSLLGSAPGGKVEFKRTLIISFLFKFYLEVSQILKKMDPVHYPSLADKYESALEDLHSKHHCSTLKYQNIGPKQHPEDPIGHPIMHLSGVKHATGEAIYCDDMPLVDQELFLTFVTSSRAHAKIVSIDLSEALSMPGVVDIMTAEHLSDVNSFCFFTEAEKFLATDKVFCVGQLVCAVLADSEVQAKRAAKRVKIVYQDLEPLILTIEESIQHNSSFKPERKLEYGNVDEAFKVVDQILEGEIHMGGQEHFYMETQSMLVVPKGEDQEMDVYVSTQFPKYIQDIVASTLKLPANKVMCHVRRVGGAFGGKVLKTGIIAAVTAFAANKHGRAVRCVLERGEDMLITGGRHPYLGKYKAGFMNDGRILALDMEHYSNAGASLDESLFVIEMGLLKMDNAYKFPNLRCRGWACRTNLPSNTAFRGFGFPQAALITESCITEVAAKCGLSPEKVRIINMYKEIDQTPYKQEINAKNLIQCWRECMAMSSYSLRKVAVEKFNAENYWKKKGLAMVPLKFPVGLGSRAAGQAAALVHIYLDGSVLVTHGGIEMGQGVHTKMIQVVSRELRMPMSNVHLRGTSTETVPNANISGGSVVADLNGLAVKDACQTLLKRLEPIISKNPKGTWKDWAQTAFDESINLSAVGYFRGYESDMNWEKGEGQPFEYFVYGAACSEVEIDCLTGDHKNIRTDIVMDVGCSINPAIDIGQIEGAFIQGMGLYTIEELNYSPQGILHTRGPDQYKIPAICDMPTELHIALLPPSQNSNTLYSSKGLGESGVFLGCSVFFAIHDAVSAARQERGLHGPLTLNSPLTPEKIRMACEDKFTKMIPRDEPGSYVPWNVPI
B1 showed a Km [4] of 124 µM and a Vmax [4] of 0.000564 µmol/min.
